Experiment: Prodrug to drug conversion half-life in vitro in PBS at pH 7.4 and 37° C. (UPLC-UV-MS)
Format: physicochemical
Details: prodrug to parent drug conversion, PBS pH 7.4, 37° C., first order T½
Description: The assay was performed to investigate the conversion half-life of prodrug to drug of the prodrugs of the invention.
Peptide stock solutions were prepared by dissolving freeze-dried powder in PBS buffer to a target of 200 μM. PBS-buffer was Dulbecco's Phosphate Buffered Saline without CaCl2 and MgCl2, gibco 14190-094 adjusted to pH=7.4. The pH of the peptide stock solutions was adjusted to 7.4 with 0.02 M HCl or 0.02M NaOH. Samples were filled in Agilent HPLC vials with fixed insert. Vials were capped to prevent evaporation. The HPLC vials were incubated at 37° C. and samples were withdrawn at different time points over a period of 2 weeks, flash frozen at −80° C., and stored at −20° C. until analysis.
Sample analysis was carried out using UPLC coupled to UV detection at 215 nm and MS (UPLC-UV-MS). One μl of sample was injected on to a Waters Acquity UPLC with a flow-through-needle injection system and on to a Waters Acquity CSH C18 column (1*150 mm), with a particle size of 1.7 μm and held at 55° C. A flow-rate of 100 μl/min was delivered with a Binary solvent manager pump having 0.1% formic acid in water as solvent A and 0.1% formic acid in acetonitrile as solvent B. Gradient elution was carried out using 15-32% B from 0 to 4 min followed by 32 to 48% B from 4 to 54 min. […]

| Conversion half-life [days] | Molecule | half-life (buffer) [days] |
| --- | --- | --- |
|  | CC[C@H](C)[C@H](NC(=O)[C@H](Cc1ccccc1)NC(=O)[C@H](CCC(=O)O)NC(=O)[C@H](CCCCNC(=O)COCCOCCNC(=O)COCCOCCNC(=O)CC[C@H](NC(=O)CCCCCCCCCCCCCCCCC(=O)O)C(=O)O)NC(=O)[C@H](C)NC(=O)[C@H](C)NC(=O)[C@H](CCC(N)=O)NC(=O)CNC(=O)[C@H](CCC(=O)O)NC(=O)[C@H](CC(C)C)NC(=O)[C@H](Cc1ccc(O)cc1)NC(=O)[C@H](CO)NC(=O)[C@H](CO)NC(=O)[C@@H](NC(=O)[C@H](CC(=O)O)NC(=O)[C@H](CO)NC(=O)[C@@H](NC(=O)[C@H](Cc1ccccc1)NC(=O)[C@@H](NC(=O)CNC(=O)[C@H](CCC(=O)O)NC(=O)C(C)(C)NC(=O)[C@H](Cc1c[nH]cn1)NC(=O)[C@@H]1CSCN1C(=O)[C@@H](N)CCCCNC(=O)COCCOCCNC(=O)COCCOCCNC(=O)CC[C@H](NC(=O)CCCCCCCCCOc1cccc(C(=O)O)c1)C(=O)O)[C@@H](C)O)[C@@H](C)O)C(C)C)C(=O)N[C@@H](C)C(=O)N[C@@H](Cc1c[nH]c2ccccc12)C(=O)N[C@@H](CC(C)C)C(=O)N[C@H](C(=O)N[C@@H](CCCNC(=N)N)C(=O)NCC(=O)N[C@@H](CCCNC(=N)N)C(=O)NCC(=O)O)C(C)C [Chem. 8, N{ε26}-[2-[2-[2-[[2-[2-[2-[[(4S)-4-carboxy-4-(17-carboxyheptadeca-noylamino)butanoyl]amino]ethoxy]ethoxy]acetyl]amino]ethoxy]ethoxy]acetyl]-N{ε}-[2-[2-[2-[[2-[2-[2-[[(4S)-4-carboxy-4-[10-(3-carboxyphenoxy)decanoylamino]butanoyl]amino]ethoxy]ethoxy]acetyl]amino]ethoxy]ethoxy]acetyl]Lys-Thz-[Aib8,Arg34]-GLP-1-(7-37)-peptide] | 7.3 |
| 7.0 | N{ε26}-[2-[2-[2-[[2-[2-[2-[[(4S)-4-carboxy-4-(17-carboxyheptadeca-noylamino)butanoyl]amino]ethoxy]ethoxy]acetyl]amino]ethoxy]ethoxy]acetyl]-N{ε}-[(2S)-2-[[(4S)-4-carboxy-4-(17-carboxyheptadecanoylamino)butanoyl]amino]-3-hydroxypropanoyl]Lys-Thz-[Aib8,Arg34]-GLP-1-(7-37)-peptide [Chem. 18] |  |
